Measured values as given in PubChem BioAssay (NCI).
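Protocol summary: plate cells (96-well), add compound at 5 concentrations, incubate 48 h, interpolate endpoints linearly. The concentration for 50% growth inhibition is given as GI50. The concentration for full growth arrest is given as TGI.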

Legend:
Test in all cases: growth of human tumour cells (NCI), 48 h
[1] = test system: NCI/ADR-RES ovarian
[2] = test system: SK-MEL-5 melanoma
[3] = test system: EKVX NSCLC
[4] = test system: SF-539 CNS
[5] = test system: HCC-2998 colon
[6] = test system: RXF 393 renal
[7] = test system: CCRF-CEM leukemia
[8] = test system: COLO 205 colon
[9] = test system: UACC-62 melanoma
[10] = test system: OVCAR-5 ovarian

`N#C/C(=C\c1cc2ccc(N3CCC3)cc2oc1=O)C(=O)N(CC(=O)O)CC(=O)O` was tested, and the GI50 [1] was over 100 µM, the TGI [1] was over 100 µM and the GI50 [2] was over 100 µM. For the same compound, the TGI [2] was over 100 µM, the GI50 [3] was over 100 µM and the TGI [3] was over 100 µM. It also gave a GI50 [4] of over 100 µM, a TGI [4] of over 100 µM and a GI50 [5] of over 100 µM. It also gave a TGI [5] of over 100 µM, a GI50 [6] of over 100 µM and a TGI [6] of over 100 µM. The GI50 [7] was over 100 µM, the TGI [7] was over 100 µM and the GI50 [8] was over 100 µM. The TGI [8] was over 100 µM, the GI50 [9] was over 100 µM and the TGI [9] was over 100 µM. For the same compound, the GI50 [10] was over 100 µM and the TGI [10] was over 100 µM.
